Ki data for 1 compound are collected here from BindingDB's records for doi:10.1021/jm2005089 (National Human Genome Research Institute, 2011).

Usually Ki stands for the dissociation constant of the complex between target and ligand, obtained from inhibition or displacement.

Structures are written as SMILES.

The assay addresses T1, Polyunsaturated fatty acid lipoxygenase ALOX12 (Homo sapiens, UniProt P18054).
T1 sequence (P18054 whole entry): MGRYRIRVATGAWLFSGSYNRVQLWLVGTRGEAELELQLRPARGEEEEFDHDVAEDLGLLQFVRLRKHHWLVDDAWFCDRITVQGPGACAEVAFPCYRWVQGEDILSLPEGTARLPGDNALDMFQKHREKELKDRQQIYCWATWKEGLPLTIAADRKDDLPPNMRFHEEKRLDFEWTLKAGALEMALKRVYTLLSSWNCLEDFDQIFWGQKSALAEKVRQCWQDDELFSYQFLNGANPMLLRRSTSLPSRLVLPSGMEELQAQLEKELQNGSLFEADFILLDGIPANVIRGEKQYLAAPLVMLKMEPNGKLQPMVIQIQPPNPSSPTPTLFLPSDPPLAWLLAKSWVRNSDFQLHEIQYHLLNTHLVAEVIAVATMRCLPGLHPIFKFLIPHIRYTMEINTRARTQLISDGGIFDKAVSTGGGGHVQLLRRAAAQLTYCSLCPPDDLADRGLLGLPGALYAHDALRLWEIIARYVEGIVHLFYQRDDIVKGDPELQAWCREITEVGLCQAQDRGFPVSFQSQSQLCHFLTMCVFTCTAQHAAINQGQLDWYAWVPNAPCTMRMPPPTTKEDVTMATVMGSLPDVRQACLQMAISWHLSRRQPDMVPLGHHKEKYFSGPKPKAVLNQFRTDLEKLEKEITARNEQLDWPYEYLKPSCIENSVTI
As to the kind of experiment: Competitive inhibition of human platelet-type N-terminally His6-tagged 12-lipoxygenase assessed as 12-HPETE formation using arachidonic acid by Michaelis-Menten equation analysis.

`CC(=O)NC(c1cccs1)c1cc(Cl)c2cccnc2c1O` (stereo unspecified): the Ki was 700 nM.
